From patent US8841290B2, “Substituted tetrahydronaphthalenes, method for the production thereof, and use thereof as drugs” (Sanofi, priority 2009, dated 2014)
In brackets after ≈: the same amount, converted by molar mass.

Legend:
human MCH receptor = target: T1, human MCH receptor (Homo sapiens, UniProt Q99705); test: calcium mobilization assay (FLIPR), functional IC50 of MCH1R antagonists; assay type: cell-based; settings: recombinant HEK293 cell line expressing the human MCH receptor; calcium flux after addition of agonist (MCH); read-out: IC50
T1 construct: expressed in transfected cells
Excerpt: A difference from the reference was, however, the use of the plasmid pEAK8 from EDGE Biosystems (USA) for the construction of the expression vector. The host used for the transfection was a transformed HEK cell line named “PEAK Stable Cells” (likewise from EDGE Biosystems). Functional measurements of the cellular calcium flux after addition of agonist (MCH) in the presence of ligand of the invention took place with the aid of the FLIPR apparatus from Molecular Devices (USA), using protocols of the apparatus manufacturer.

[1] = nephelometric (kinetic) solubility determination, phosphate buffer pH 7.4; assay type: physicochemical; settings: for solubility kinetic: aqueous buffer, kinetic from dmso stock
Method: A DMSO solution of the test compound (2.5 mM; 0.5 μl) is pipetted into 200 μl of an aqueous test solution (e.g. phosphate-buffered saline, 10×, 1M, Sigma, adjusted to 10 mM, pH 7.4) in a 96-well microtiter plate, and the turbidity is measured at the resulting theoretical concentration for the test compound of 6.25 μM using a nephelometer (e.g. Nephelostar Galaxy, BMG Labtech). The concentration of the test compound in the aqueous test solution is then raised to a theoretical 12.5 μM by adding further DMSO solution (2.5 mM; 0.5 μl), and the turbidity measurement is repeated. Further additions of DMSO solutions (1 μl, 2.5 mM; 0.5 μl, 10 mM; then 9×1 μl, 10 mM resulting in theoretical concentrations of 25 μM, 50 μM, 100 μM, 150 μM, 200 μM, 250 μM, 300 μM, 350 μM, 400 μM, 450 μM and 500 μM) with turbidity measurement in between complete the measurement process.
Evaluation: The turbidity values from the nephelometer are plotted against the theoretical concentration of the test compound in the aqueous test solution. As soon as a significant turbidity is detected (e.g. 5 times above the control value of the aqueous test solution) at a theoretical concentration, the level of concentration below this is stated to be the solubility limit of the test compound in the test solution. Thus, the maximum possible measurement range emerges as values<6.25 μM, 6.25-500 μM and >500 μM.

[2] = nephelometry, Table 8, reference compounds versus inventive examples

T1 sequence (Q99705 whole entry): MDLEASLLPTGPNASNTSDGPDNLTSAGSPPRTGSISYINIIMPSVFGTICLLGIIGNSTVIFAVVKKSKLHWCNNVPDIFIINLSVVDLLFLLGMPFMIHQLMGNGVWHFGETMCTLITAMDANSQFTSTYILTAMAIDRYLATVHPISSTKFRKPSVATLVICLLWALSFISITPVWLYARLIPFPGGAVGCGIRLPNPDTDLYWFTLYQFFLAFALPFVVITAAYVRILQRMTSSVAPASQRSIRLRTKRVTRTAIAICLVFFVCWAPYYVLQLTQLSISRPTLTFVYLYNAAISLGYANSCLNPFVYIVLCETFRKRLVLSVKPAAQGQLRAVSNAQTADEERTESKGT

Compound	IC50 (human MCH receptor)	solubility kinetic ([1]; nephelometric, Table 7)	solubility kinetic [1, 2]	pH 7.4 (solubility) [1, 2]
CC1CCN(c2ccc(C(=O)N(C)[C@H]3CCc4cc(CNCC5CCOCC5)ccc4C3)cc2)CC1 [Example 2-03]	1070 nM	> 302 µg/mL	–	–
O=C(N[C@H]1CCc2cc(CNCC3CCOCC3)ccc2C1)c1ccc(NC(=O)C(F)(F)F)cc1 [Example 2-04]	3690 nM	15 µg/mL (≈ 30.6 µM)	–	–
CN(C(=O)c1ccc(OCC2CC2)cc1)[C@H]1CCc2cc(CN3CC4CCC3CC4)ccc2C1 [Example 7-03]	1370 nM	> 286 µg/mL	–	–
CC1CCN(c2ccc(C(=O)N[C@H]3CCc4cc(CNCC5CCOCC5)ccc4C3)cc2)CC1 [Example 2-05]	248 nM	15 µg/mL (≈ 31.5 µM)	–	–
CN(C(=O)c1ccc(OCC2CC2)cc1)[C@H]1CCc2cc(CN3CCC(O)CC3)ccc2C1 [Example 7-06]	508 nM	> 281 µg/mL	–	–
CN(C(=O)c1ccc(-c2ccc(F)cc2)cc1)[C@H]1CCc2cc(CN3CCCC3)ccc2C1 [Ref-2, reference compound]	–	–	7 µg/mL (≈ 15.8 µM)	–
CCN1CCC[C@@H]1c1ccc2c(c1)CC[C@H](N(C)C(=O)c1ccc(OCC3CC3)cc1)C2 [Example 5-02]	152 nM	> 273 µg/mL	–	–
O=C(N[C@H]1CCc2cc(CN3CCCCCC3)ccc2C1)c1ccc(OCC2CCC2)cc1 [Example 6-08]	168 nM	< 4 µg/mL	–	–
O=C(N[C@H]1CCc2cc(CN3CCCCCC3)ccc2C1)c1ccc(COC2CCC2)cc1 [Example 6-06]	75 nM	28 µg/mL (≈ 62.7 µM)	–	–
CN(C(=O)c1ccc(OCC2CC2)cc1)[C@H]1CCc2cc(CNCC3(C)COC3)ccc2C1 [Example 1-05]	125 nM	> 281 µg/mL	–	–
CN(C(=O)c1ccc(OCC2CC2)cn1)[C@H]1CCc2cc(CN3CCCCCC3)ccc2C1 [Example 7-27]	756 nM	168 µg/mL (≈ 375 µM)	–	–
CC(C)COc1ccc(C(=O)N(C)[C@H]2CCc3cc(CNCC4CCOCC4)ccc3C2)nc1 [Example 2-09]	360 nM	> 290 µg/mL	–	–
CN(C(=O)c1ccc(OCC2CC2)cc1)[C@H]1CCc2cc(CNCCC3CCCO3)ccc2C1 (some centres unmarked) [Example 1-10]	140 nM	> 288 µg/mL	–	–
CCN1[C@@H](c2ccc3c(c2)CC[C@H](N(C)C(=O)c2ccc(OCC4CC4)cc2)C3)CC[C@@H]1C [Example 5-05]	519 nM	168 µg/mL (≈ 376 µM)	–	–
COCCCNCc1ccc2c(c1)CC[C@H](N(C)C(=O)c1ccc(OCC3CC3)cc1)C2 [Example 7-21]	133 nM	> 275 µg/mL	–	–
CN(Cc1ccc2c(c1)CC[C@H](N(C)C(=O)c1ccc(OCC3CC3)cc1)C2)CC1CCOCC1 [Example 1-13]	284 nM	> 295 µg/mL	–	–
CN(C(=O)c1ccc(OCC2CC2)cc1)[C@H]1CCc2cc(CNCC3CC3)ccc2C1 [Example 7-08]	420 nM	> 266 µg/mL	–	–
CCN(Cc1ccc2c(c1)CC[C@H](N(C)C(=O)c1ccc(OCC3CC3)cc1)C2)CC1CCOCC1 [Example 1-14]	507 nM	30 µg/mL (≈ 61.1 µM)	–	–
CC[C@H](O)COc1ccc(C(=O)N[C@H]2CCc3cc(CN4CCCC4)ccc3C2)cc1 [Example 6-02]	223 nM	> 268 µg/mL	–	>0.268 mg/ml
CN1CCC[C@@H]1c1ccc2c(c1)CC[C@H](N(C)C(=O)c1ccc(OCC3CC3)cc1)C2 [Example 5-01]	137 nM	> 266 µg/mL	–	–
CC(C)OCCNCc1ccc2c(c1)CC[C@H](N(C)C(=O)c1ccc(OCC3CC3)cc1)C2 [Example 7-26]	149 nM	> 282 µg/mL	–	–
CCCCOc1ccc(C(=O)N(C)[C@H]2CCc3cc(CNCC4CCOCC4)ccc3C2)cc1 [Example 2-06]	146 nM	203 µg/mL (≈ 437 µM)	–	–

Compound	IC50 (human MCH receptor)	solubility kinetic ([1]; nephelometric, Table 7)	solubility kinetic [1, 2]	pH 7.4 (solubility) [1, 2]
CN(C(=O)c1ccc(OCC2CC2)cc1)[C@H]1CCc2cc([C@H]3CCCN3)ccc2C1 [Example 4-01, 4-Cyclopropylmethoxy-N-methyl-N—((S)—(R)-6-pyrrolidin-2-yl-1,2,3,4-tetrahydronaphthalen-2-yl)benzamide]	136 nM	> 221 µg/mL	–	–
CCCCOc1ccc(C(=O)N(C)[C@H]2CCc3cc(CNCC4CCOCC4)ccc3C2)nc1 [Example 2-07]	141 nM	> 290 µg/mL	–	–
CCN(CC)Cc1ccc2c(c1)CC[C@H](N(C)C(=O)c1ccc(OCC3CC3)cc1)C2 [Example 7-18]	668 nM	> 267 µg/mL	–	–
CN(C(=O)c1ccc(OCC2CC2)cc1)[C@H]1CCc2cc(CN3CCCC3)ccc2C1 [Example 6-05]	153 nM	199 µg/mL (≈ 475 µM)	–	–
CN(C(=O)c1ccc(OCC2CC2)cc1)[C@H]1CCc2cc(CN3C[C@@H]4CC[C@H]3C4)ccc2C1 [Example 7-02]	831 nM	> 279 µg/mL	–	–
CN(C(=O)c1ccc(OCC2CC2)cc1)[C@H]1CCc2cc(CN3CCCCCC3)ccc2C1 [Example 7-15]	336 nM	> 280 µg/mL	–	–
CN(C(=O)c1ccc(OCC2CC2)cc1)[C@H]1CCc2cc([C@H]3CCCN3CC3CCOCC3)ccc2C1 [Example 5-03]	858 nM	15 µg/mL (≈ 29.8 µM)	–	–
CN(C(=O)c1ccc(OCC2CC2)cc1)[C@H]1CCc2cc(CNCC3CCCOC3)ccc2C1 (some centres unmarked) [Example 1-07]	154 nM	> 288 µg/mL	–	–
COC[C@H](C)NCc1ccc2c(c1)CC[C@H](N(C)C(=O)c1ccc(OCC3CC3)cc1)C2 [Example 7-24]	384 nM	> 275 µg/mL	–	–
CN(C(=O)c1ccc(OCC2CC2)cc1)[C@H]1CCc2cc(CNCC3CCOCC3)ccc2C1 [Example 1-01, 4-Cyclopropylmethoxy-N-methyl-N—((S)-6-{[(tetrahydropyran-4-ylmethyl)amino]methyl}-1,2,3,4-tetrahydronaphthalen-2-yl)benzamide]	121 nM	153 µg/mL (≈ 331 µM)	–	–
CN(C(=O)c1ccc(OCC2CC2)cn1)[C@H]1CCc2cc(CN3CCC(C)(C)CC3)ccc2C1 [Example 7-28]	152 nM	> 288 µg/mL	–	–
CC(C)(C)CNCc1ccc2c(c1)CC[C@H](NC(=O)c1ccc(OCC3CC3)cc1)C2 [Example 7-13]	93 nM	7 µg/mL (≈ 16.6 µM)	–	–
CN(C(=O)c1ccc(OCC2CC2)cc1)[C@H]1CCc2cc(CNCC(C)(C)C)ccc2C1 [Example 7-11]	898 nM	> 274 µg/mL	–	–
CN(C(=O)c1ccc(OCC2CC2)cc1)[C@H]1CCc2cc(CN3CCC(C(C)(C)O)CC3)ccc2C1 [Example 7-04]	141 nM	> 302 µg/mL	–	–
CC(C)CCNCc1ccc2c(c1)CC[C@H](N(C)C(=O)c1ccc(OCC3CC3)cn1)C2 [Example 7-32]	145 nM	> 275 µg/mL	–	–
O=C(N[C@H]1CCc2cc(CN3CCCC3)ccc2C1)c1ccc(-c2ccc(F)cc2)cc1 [Ref-1, reference compound]	–	–	3 µg/mL (≈ 7 µM)	–
CCCCOc1ccc(C(=O)N(C)[C@H]2CCc3cc(CN4CCCC4)ccc3C2)cc1 [Example 6-03]	327 nM	> 267 µg/mL	–	>0.267 mg/ml
CN(C(=O)c1ccc(OCC2CC2)cn1)[C@H]1CCc2cc(CNCC(C)(C)C)ccc2C1 [Example 7-34]	375 nM	> 275 µg/mL	–	–
CN(C(=O)c1ccc(OCC2CC2)cc1)[C@H]1CCc2cc(CNCC3(C)CCOCC3)ccc2C1 [Example 1-08]	126 nM	> 295 µg/mL	–	–
COCC1(CNCc2ccc3c(c2)CC[C@H](N(C)C(=O)c2ccc(OCC4CC4)cc2)C3)CC1 [Example 7-22]	148 nM	> 288 µg/mL	–	–
CN(C(=O)c1ccc(OCC2CC2)cc1)[C@H]1CCc2cc(CNCC3COCCO3)ccc2C1 (some centres unmarked) [Example 1-09]	124 nM	> 289 µg/mL	–	–
